Test results taken from patent US20180221352A1, “3-(1H-PYRROLO[2,3-C]PYRIDIN-2-YL)-1H-PYRAZOLO[3,4-B]PYRIDINES AND THERAPEUTIC USES THEREOF” (Samumed, LLC, priority 2015, published 2018).

Legend:
Assay type in all cases: cell-based
[1] = tested on: primary human mesenchymal stem cells (hMSCs); assay: Induction of chondrogenesis in hMSCs (nodule count); conditions: 6 days; for EC50: concentration required to induce 50% levels of chondrogenesis vs TGF-β3, read-out: Conc (nM) of 50% TGF-β3 activity; for Emax: relative to TGF-β3 (10 ng/mL) positive control, read-out: Max. Activity as % TGF-β3 activity
Source text: Representative compounds were screened using primary human mesenchymal stem cells (hMSCs) to determine their ability to induce chondrogenesis (process by which cartilage is developed).
Primary human mesenchymal stem cells (hMSCs) were purchased from Lonza (Walkersville, Md.) and expanded in Mesenchymal Stem Cell Growth Media (Lonza). Cells between passage 3 and 6 were used for the experiments.
To image chondrogenic nodules, the cells were fixed using 4% formaldehyde (Electron Microscopy Sciences), and stained with 2 μg/mL Rhodamine B (Sigma-Aldrich) and 20 μM Nile Red (Sigma-Aldrich) [Johnson K., et. al, A Stem Cell-Based Approach to Cartilage Repair, Science, (2012). […] Number of nodules in each well was normalized to the average of 3 DMSO treated wells on the same plate using Excel (Microsoft Inc.). The normalized averages (fold change over DMSO) of 3 replicate wells for each compound concentration were calculated. Due to solubility limitations of some of the compounds, curve fitting was incomplete leading to inaccurate EC50 determinations.
Using TGF-β3 as a positive control, the concentration of representative compounds required to induce 50% levels of chondrogenesis is reported. In addition, the maximum activity of each compound and the respective dose that each compound reached maximum chondrogenesis activity is reported.

SW480 colon cancer cells = assay: Cell viability assay (CellTiter-Blue); conditions: Homo sapiens, 96 h; SW480 cell viability, four days
Method: Representative compounds were screened using the following assay procedure to assess the effect on cell viability as described below.
Approximately 2×10^3 SW480 colon cancer cells were seeded into each well and allowed to incubate in the presence or absence of compound for four days at 37° C./5% CO2. Eight replicates of DMSO-treated cells served as controls and cells treated with compound were performed in duplicate.
After incubation, 20 μL of CellTiter-Blue (Promega) was added to each well allowed to incubate for approximately 3 hours. This reagent was a buffered solution which contains resazurin, metabolically active cells were able to reduce rezarurin (blue) into resorufin (pink) which was highly fluorescent. This measured fluorescence was used as a readout for cell viability.

[2] = tested on: primary human fibroblasts derived from IPF patients (LL29 cells); assay: Inhibition of fibrotic process, αSMA staining in TGF-β1 treated fibroblasts; conditions: Fibroblast, 96 h, LL29 cells, TGF-β1 20 ng/mL, 4 days, % αSMA positive cells
Method: Representative compounds were screened using primary human fibroblasts (derived from IPF patients) treated with TGF-β1 to determine their ability to inhibit the fibrotic process.
LL29 cells are plated at 1,500 cells/well in 80 μL/well F12 medium supplemented with 1% Fetal Bovine Serum. […] Wells treated with TGF-31 and containing DMSO were used as controls. […] Following incubation for 4 days, SYTOX green nucleic acid stain (Life Technologies [Thermo Fisher Scientific]) was added to the wells at a final concentration of 1 μM and incubated at room temperature for 30 min.

IL-6 = IL-6 inhibition in LPS-stimulated THP-1 cells (HTRF); conditions: Homo sapiens; for EC50: THP-1 cells, LPS 500 ng/mL, 22 hours, IL6 HTRF; for inhibition at 10 µM: THP-1, read-out: percent inhibition at 10 μM
Method: THP-1 cells were cultured in basal media with 1% FBS for 24 hours before the start of the assay. […] THP-1 cells were plated at 5000 cells/well in the 384-well plates and incubated at 37° C. for 2 h. 500 ng/mL of LPS was added after 2 hours and cells were incubated for another 22 hours at 37° C. Plates were spun in a centrifuge for 1 minute at […] and a mixture of anti-IL6 XL665, and anti-IL6 Cryptate diluted in reconstitution buffer (Cisbio Inc.) was added to each well. Following incubation for 3 hrs at room temperature, Homogeneous Time-Resolved Fluorescence (HTRF) was measured using the Envision (Perkin Elmer) at 665 nm and […]. The ratio of fluorescence at 665 nm to 620 nm was used as a readout for IL6 quantification. All samples were processed in duplicate. Readings were normalized to DMSO treated cells and normalized activities were utilized for EC50 calculations using the dose-response log (inhibitor) vs. response−variable slope (four parameters) nonlinear regression feature available in GraphPad Prism 5.0 (or Dotmatics).

[3] = tested on: Wnt activity (Sp5-Luc reporter, SW480 colon carcinoma cells); assay: Wnt activity screening assay, Sp5-Luc reporter gene in SW480 cells; conditions: Homo sapiens; for EC50: Sp5-Luc reporter, SW480 cells, overnight incubation
Source text: The screening assay for Wnt activity is described as follows. Reporter cell lines can be generated by stably transducing cancer cell lines (e.g., colon cancer) or primary cells (e.g., IEC-6 intestinal cells) with a lentiviral construct that includes a Wnt-responsive promoter driving expression of the firefly luciferase gene.
SW480 colon carcinoma cells were transduced with a lentiviral vector expressing luciferase with a human Sp5 promoter consisting of a sequence of eight TCF/LEF binding sites. SW480 cells stably expressing the Sp5-Luc reporter gene and a hygromycin resistance gene were selected by treatment with 150 μg/mL of hygromycin for 7 days. These stably transduced SW480 cells were expanded in cell culture and used for all further screening activities. […] For Sp5-Luc reporter gene assays, the cells were plated at 4,000 cells/well in 384-well plates with medium containing 1% fetal bovine serum and incubated overnight at 37° C. and 5% CO2. Following incubation, 20 μl of BrightGlo luminescence reagent (Promega) was added to each well of the 384-well assay plates. The plates were placed on an orbital shaker for 2 min and then luminescence was quantified using the Envision (Perkin Elmer) plate reader. Readings were normalized to DMSO only treated cells, and normalized activities were utilized for EC50 calculations using the dose-response log (inhibitor) vs. response−variable slope (four parameters) nonlinear regression feature available in GraphPad Prism 5.0 (or Dotmatics).

EC50 [1] [nM] | EC50 (SW480 colon cancer cells) [nM] | EC50 (IL-6) [nM] | EC50 [3] [nM] | Structure (SMILES) | Emax [1] [%] | EC50 [2] [nM] | inhibition at 10 µM (IL-6) [%] | inhibition at 10 µM ([3]; SW480, read-out: percent inhibition at 10 μM) [%]
10 | 771 | 1180 | 246 | CCC(=O)Nc1cncc(-c2cnc3[nH]nc(-c4cc5c(-c6cccc(F)c6)cncc5[nH]4)c3c2)c1 [Compound 1, N-(5-(3-(4-(3-Fluorophenyl)-1H-pyrrolo[2,3-c]pyridin-2-yl)-1H-pyrazolo [3,4-b]pyridin-5-yl)pyridin-3-yl)propionamide] | 113 | 859 | – | –
– | 1070 | 232 | 572 | Fc1cccc(-c2cncc3[nH]c(-c4n[nH]c5ncc(-c6cccnc6)cc45)cc23)c1 [Compound 4, 3-(4-(3-Fluorophenyl)-1H-pyrrolo[2,3-c]pyridin-2-yl)-5-(pyridin-3-yl)-1H-pyrazolo[3,4-b]pyridine] | 36 | 1010 | – | –
900 | 851 | 148 | 238 | CC(C)Nc1cncc(-c2cnc3[nH]nc(-c4cc5c(-c6cccc(F)c6)cncc5[nH]4)c3c2)c1 [Compound 12, 5-(3-(4-(3-Fluorophenyl)-1H-pyrrolo[2,3-c]pyridin-2-yl)-1H-pyrazolo[3,4-b]pyridin-5-yl)-N-isopropylpyridin-3-amine] | 104 | 713 | – | –
10 | 3260 | > 10000 | 3120 | Fc1cccc(-c2cncc3[nH]c(-c4n[nH]c5ncc(-c6cncc(CN7CCCCC7)c6)cc45)cc23)c1 [Compound 15, 3-(4-(3-Fluorophenyl)-1H-pyrrolo[2,3-c]pyridin-2-yl)-5-(5-(piperidin-1-ylmethyl)pyridin-3-yl)-1H-pyrazolo[3,4-b]pyridine] | 108 | 1970 | 41 | –
900 | 2800 | 2090 | 3920 | Fc1cccc(-c2cncc3[nH]c(-c4n[nH]c5ncc(-c6cncc(CNCc7ccccc7)c6)cc45)cc23)c1 [Compound 24, N-Benzyl-1-(5-(3-(4-(3-fluorophenyl)-1H-pyrrolo[2,3-c]pyridin-2-yl)-1H-pyrazolo[3,4-b]pyridin-5-yl)pyridin-3-yl)methanamine] | 65 | 1280 | – | –
10 | 2090 | > 10000 | > 10000 | Cc1ccncc1-c1cnc2[nH]nc(-c3cc4c(-c5ccc(F)cc5)cncc4[nH]3)c2c1 [Compound 33, 3-(4-(4-Fluorophenyl)-1H-pyrrolo[2,3-c]pyridin-2-yl)-5-(4-methylpyridin-3-yl)-1H-pyrazolo[3,4-b]pyridine] | 67 | 1040 | 26.1 | 49.4
2700 | 940 | 3270 | 2140 | Fc1ccc(-c2cncc3[nH]c(-c4n[nH]c5ncc(-c6cncc(CN7CCCC7)c6)cc45)cc23)cc1 [Compound 42, 3-(4-(4-Fluorophenyl)-1H-pyrrolo[2,3-c]pyridin-2-yl)-5-(5-(pyrrolidin-1-ylmethyl)pyridin-3-yl)-1H-pyrazolo[3,4-b]pyridine] | 133 | 1290 | – | –
– | 1130 | > 10000 | 594 | Fc1ccc(-c2cncc3[nH]c(-c4n[nH]c5ncc(-c6cncnc6)cc45)cc23)cc1 [Compound 55, 3-(4-(4-Fluorophenyl)-1H-pyrrolo[2,3-c]pyridin-2-yl)-5-(pyrimidin-5-yl)-1H-pyrazolo[3,4-b]pyridine] | 24 | 854 | 29.8 | –
– | 1910 | 9080 | 2300 | CCNCc1cncc(-c2cnc3[nH]nc(-c4cc5c(-c6ccccc6F)cncc5[nH]4)c3c2)c1 [Compound 62, N-((5-(3-(4-(2-Fluorophenyl)-1H-pyrrolo[2,3-c]pyridin-2-yl)-1H-pyrazolo [3,4-b]pyridin-5-yl)pyridin-3-yl)methyl)ethanamine] | 37 | 2670 | – | –
– | 2860 | 1440 | 2090 | CC(C)C(=O)Nc1cncc(-c2cnc3[nH]nc(-c4cc5c(-c6ccccc6F)cncc5[nH]4)c3c2)c1 [Compound 65, N-(5-(3-(4-(2-Fluorophenyl)-1H-pyrrolo[2,3-c]pyridin-2-yl)-1H-pyrazolo [3,4-b]pyridin-5-yl)pyridin-3-yl)isobutyramide] | 45 | 2390 | – | –
30 | 1050 | 131 | 2490 | CN(C)Cc1cncc(-c2cnc3[nH]nc(-c4cc5c(-c6ccccc6F)cncc5[nH]4)c3c2)c1 [Compound 69, 1-(5-(3-(4-(2-Fluorophenyl)-1H-pyrrolo[2,3-c]pyridin-2-yl)-1H-pyrazolo [3,4-b]pyridin-5-yl)pyridin-3-yl)-N,N-dimethylmethanamine] | 61 | 1890 | – | –
10 | 292 | > 10000 | 390 | O=C(Nc1cncc(-c2cnc3[nH]nc(-c4cc5c(-c6ccccc6F)cncc5[nH]4)c3c2)c1)C1CC1 [Compound 76, N-(5-(3-(4-(2-Fluorophenyl)-1H-pyrrolo[2,3-c]pyridin-2-yl)-1H-pyrazolo [3,4-b]pyridin-5-yl)pyridin-3-yl)cyclopropanecarboxamide] | 52 | 110 | 22 | –
– | 3290 | 3440 | 2250 | Cc1ccncc1-c1cnc2[nH]nc(-c3cc4c(-c5cccnc5)cncc4[nH]3)c2c1 [Compound 89, 5-(4-Methylpyridin-3-yl)-3-(4-(pyridin-3-yl)-1H-pyrrolo[2,3-c]pyridin-2-yl)-1H-pyrazolo[3,4-b]pyridine] | 17 | 1480 | – | –
